Source: PMC10487436, “Towards Anticancer and Antibacterial Agents: Design and Synthesis of 1,2,3-Triazol-quinobenzothiazine Derivatives” (International Journal of Molecular Sciences, 2023)
Values after ≈ are worked out from the molar mass of the structure shown.

Assays:
[1] = system: SNB-19 (human glioblastoma); assay: WST-1 proliferation assay, SNB-19; format: cell-based
Procedure: (§1) Compounds were evaluated for their antiproliferative activity using three cultured cell lines: A549 (human lung carcinoma, ATCC, Manassas, VA, USA), SNB-19 (human glioblastoma, DSMZ, German Collection of Microorganisms and Cell Cultures), T-47D (human breast cancer, ATCC, Manassas, VA, USA), and NHDF (normal human dermal fibroblasts, ATCC, Manassas, VA, USA). The cultured cells were kept at 37 °C and 5% CO2. The cells were seeded (1 × 10^4 cells/well/100 μL DMEM supplemented with 10% FCS, streptomycin, and penicillin) using 96-well plates (corning). Cells were counted in a hemocytometer (Burker chamber) using a phase contrast Olympus IX50 microscope equipped with a Sony SSC-DC58 AP camera and an Olympus DP10 digital camera.
(§2) The antiproliferative effect of the compounds exerted on cancer and normal cells was determined using the Cell Proliferation Reagent WST-1 assay (Roche Molecular Biochemicals, Mannheim, Germany). This assay is based on a colorimetric method using the enzymatic ability of viable cells to cause the bright, red-colored stable tetrazolium monosodium salt [2-(4-iodophenyl)-3-(4-nitrophenyl)-5-(2,4-disulfophenyl)–2H-tetra-zolium] to transform into the dark, red-colored soluble formazan. […] An increase in the amount of formazan dye formed correlated with the number of metabolically active cells in the culture. The formazan dye produced by metabolically active cells was quantified by absorbance readings at appropriate wavelengths. The examined cells were exposed to the tested compounds (1 mM DMSO stock) for 72 h at various concentrations (0.1–100 μM). The control was performed in order to eliminate the DMSO effect at the concentration used. Cell cultures were incubated with WST-1 (10 μL) for 1 h. The absorbance of the samples was measured against a background control at 450 nm using a microplate reader with a reference wavelength at 600 nm. The obtained results are expressed as the means of at least two independent experiments performed in triplicate. The antiproliferative activity of the tested compounds was compared to that of cisplatinum. The values of IC50 (a concentration of a compound that is required for 50% inhibition) were calculated from the dose-response relationship with respect to control. The results were reported as the mean (±std) of three separate experiments.

[2] = system: A549 (human lung carcinoma); assay: WST-1 proliferation assay, A549; format: cell-based
Procedure: as §1, §2

[3] = system: T-47D (human breast cancer); assay: WST-1 proliferation assay, T47D; format: cell-based; conditions: 72 h exposure
Procedure: as §1, §2

[4] = system: NHDF (normal human dermal fibroblasts); assay: WST-1 proliferation assay, NHDF; format: cell-based; conditions: normal cells, 72 h exposure
Procedure: as §1, §2

[5] = system: Mycobacterium smegmatis ATCC 700084; assay: MIC, broth dilution micro-method, MS; format: cell-based; conditions: Mycolicibacterium smegmatis, ATCC700084, 72 h; 3 days at 37 °C
[6] = system: Mycobacterium marinum CAMP 5644; assay: MIC, broth dilution micro-method, MM; format: cell-based; conditions: CAMP5644, 504 h, 21 days at 28 °C
[7] = system: Mycobacterium smegmatis ATCC 700084; assay: MBC, agar aliquot subculture method, MS; format: cell-based; conditions: Mycolicibacterium smegmatis, ATCC700084
Procedure: (§3) For the above-mentioned strains/isolates, the agar aliquot subculture method was used as a test for bactericidal agents. After the MIC value determination, the inoculum was transferred to CaMH (Oxoid) for staphylococci, BHI (Oxoid) for enterococci, and Middlebrook 7H9 (Difco) for mycobacteria medium using a multipoint inoculator. As indicated above, the plates were incubated on a thermostat at 37 °C for the appropriate time for each micro-organism. The lowest concentration of test compound at which ≤5 colonies were obtained was then evaluated as MBC, corresponding to a 99.9% decrease in CFU relative to the original inoculum.

[8] = system: Mycobacterium marinum CAMP 5644; assay: MBC, agar aliquot subculture method, MM; format: cell-based; conditions: CAMP5644
Procedure: as §3

[9] = system: Mycobacterium smegmatis ATCC 700084; conditions: MTT, 3 days
[10] = Homo sapiens, SNB-19, 72 h exposure
[11] = Homo sapiens, A549, 72 h exposure

Row | SMILES | IC50 [1, 10] | IC50 [2, 11] | IC50 ([3]; Homo sapiens, T47D) | IC50 ([4]; Homo sapiens, NHDF) | also measured
1 | N.N.[Cl][Pt][Cl] [CIS, cisplatin, reference compound] | – | – | – | – | IC50 ([1]; 72 h exposure): 16.7 ± 1.3 µM; IC50 ([2]; 72 h exposure): 3 ± 0.2 µM; IC50 [3]: 9 ± 0.7 µM; IC50 [4]: 29.9 ± 3.3 µM
2 | O=C(O)c1cn(C2CC2)c2cc(N3CCNCC3)c(F)cc2c1=O [CPX, ciprofloxacin, reference compound] | – | – | – | – | MIC [5]: 0.38 µM (≈ 0.126 µg/mL); MIC [6]: 0.38 µM (≈ 0.126 µg/mL); MBC [7]: 0.38 µM (≈ 0.126 µg/mL); MBC [8]: 0.38 µM (≈ 0.126 µg/mL); Conc.: lowest multiple of MBC with at least 70% inhibition of respiratory activity [9]: 32× MIC (32× MBC); Conc.: lowest multiple of MIC with at least 70% inhibition of respiratory activity [9]: 32× MIC (32× MBC)
3 | COc1cccc2c1C(=O)c1c(O)c3c(c(O)c1C2=O)C[C@@](O)(C(=O)CO)C[C@@H]3O[C@H]1C[C@H](N)[C@H](O)[C@H](C)O1 [DOX, doxorubicin, reference compound] | 1.7 ± 0.2 µM | 1.3 ± 0.1 µM | 0.8 ± 0.1 µM | 5.5 ± 0.5 µM | –
4 | CO[C@H]1/C=C/O[C@@]2(C)Oc3c(C)c(O)c4c(O)c(c(/C=N/N5CCN(C)CC5)c(O)c4c3C2=O)NC(=O)/C(C)=C\C=C\[C@H](C)[C@H](O)[C@@H](C)[C@@H](O)[C@@H](C)[C@H](OC(C)=O)[C@@H]1C [RIF, rifampicin, reference compound] | – | – | – | – | MIC [5]: 19.4 µM (≈ 16 µg/mL); MIC [6]: 2.43 µM (≈ 2 µg/mL)

The next lines start with results.

Row | IC50 [1, 10] | IC50 [2, 11] | IC50 ([3]; Homo sapiens, T47D) | SMILES | IC50 ([4]; Homo sapiens, NHDF) | also measured
5 | > 100 µM | > 100 µM | > 100 µM | Nc1ccc(OCc2cn(Cc3ccccc3)nn2)cc1 [5f, 1-benzyl-4-(4-aminophenoxy)methyl-1H-1,2,3-triazole] | > 100 µM | –
6 | > 100 µM | > 100 µM | > 100 µM | Nc1cccc(OCc2cn(Cc3ccc([N+](=O)[O-])cc3)nn2)c1 [5h, 1-(4-nitrobenzyl)-4-(3-aminophenoxy)methyl-1H-1,2,3-triazole] | > 100 µM | –
7 | > 100 µM | > 100 µM | > 100 µM | Nc1ccc(OCc2cn(Cc3ccc([N+](=O)[O-])cc3)nn2)cc1 [5i, 1-(4-nitrobenzyl)-4-(4-aminophenoxy)methyl-1H-1,2,3-triazole] | > 100 µM | –
